Laboratory results published in patent EP4512427A1, “ANTIBODY-DRUG CONJUGATES BASED ON MOLECULAR GLUE DEGRADERS AND USES THEREOF” (Mablink Bioscience, priority 2023, dated 2025).
Entries after “also recorded” stand apart in the source; their conditions may differ.

How the values were obtained:
[1] = test system: JIMT-1; assay: In vitro cytotoxicity assay (MTT); assay type: cell-based, human; conditions: Homo sapiens, 144 h, 6 days incubation
Method in brief: (§1)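 Cancer cell lines seeded (1000–10 000 cells/well), allowed 24 h at 37°C, then exposed to serial compound dilutions for 6 days at 37°C. Viability by MTT (1–4 h), formazan dissolved in acidified isopropanol, absorbance 570 nm (ref. 690 nm); IC50 from dose-response fit versus untreated cells.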

[2] = test system: MDA-MB-231; assay: In vitro cytotoxicity assay (MTT); assay type: cell-based, human; conditions: Homo sapiens, 144 h, 6 days incubation
Method in brief: as §1

[3] = test system: BT-474; assay: In vitro cytotoxicity assay (MTT); assay type: cell-based, human; conditions: Homo sapiens, BT-474, 144 h
Method in brief: as §1

[4] = test system: SKBR-3; assay: In vitro cytotoxicity assay (MTT); assay type: cell-based, human; conditions: Homo sapiens, SK-BR-3, 144 h, 6 days incubation
Method in brief: as §1

[5] = test system: MDA-MB-453; assay: In vitro cytotoxicity assay (MTT); assay type: cell-based, human; conditions: Homo sapiens, 144 h, 6 days incubation
Method in brief: as §1

[6] = test system: NCI-N87; assay: In vitro cytotoxicity assay (MTT); assay type: cell-based, human; conditions: Homo sapiens, 144 h, 6 days incubation
Method in brief: as §1

[7] = test system: cancerous human cell lines; assay: In vitro cytotoxicity assay (MTT), side-by-side comparisons over the cell line panel; assay type: cell-based; conditions: side-by-side comparison (Figures 1-3, Table 3), result in words
Procedure: In vitro cytotoxicity of compounds of the disclosure was assessed on several cancerous human cell lines. Cells were plated in 96-well plates at an appropriate density depending on the cell line (between 1000 and 10 000 cells/well in 100µL of appropriate culture media) and incubated at 37°C for 24 hours. Serial dilutions of the tested compound previously dissolved in culture media (50µL) were added, and incubation was carried at 37°C out for 6 days. MTT (5mg/mL in PBS, 20µL, Sigma-Aldrich) was added into the wells, and incubation was continued for 1 to 4 hours at 37°C. Culture media was then carefully removed, and well content was homogeneously dissolved with acidified isopropanol. Absorbance values were measured on a microplate reader using a wavelength of 570 nm (with a reference wavelength of 690 nm). The IC50 concentration values compared to untreated control cells were determined using inhibition dose response curve fitting (GraphPad Prism 9). Exatecan mesylate (cat#HY-13631A) and CR8 (CAS# 294646-77-8; cat#HY-18340) were purchased from MedChemExpress (China).

[8] = target: T1, CDK13/CycK (Homo sapiens, UniProt Q14004); assay: IC50 profiling on top 25 protein kinases; assay type: biochemical; conditions: titration from 0.1 nM to 10 000 nM
T1 construct: GST-fusion or His-tag (not given for this kinase); purchased Reaction Biology, Germany; host or cells: Sf9 insect cells or E.coli
Procedure: (§2) Compound 2384 according to the disclosure was subjected to kinase screening assays (performed at Reaction Biology, Germany). […] A radiometric protein kinase assay (33PanQinase® ActivityAssay) was used for measuring the kinase activity of 340 protein kinases. All kinase assays were performed in 96-well FlashPlates™ from Perkin Elmer (Boston, MA, USA) in a 50 µL reaction volume. […] All PKC assays (except the PKC-mu and the PKC-nu assay) additionally contained 1 mM CaCl2, 4 mM EDTA, 5 µg/m! Phosphatidylserine and 1 µg/m! 1,2-Dioleyl-glycerol. The CAMK1D, CAMK2A, CAMK2B, CAMK2D, CAMK2G, CAMK4, CAMKK1, CAMKK2, DAPK2, EEF2K, MYLK, MYLK2 and MYLK3 assays additionally contained 1 µg/ml Calmodulin and 0.5 mM CaCl2. The PRKG1 and PRKG2 assays additionally contained 1 µM cGMP. The DNA-PK assay additionally contained 2.5 µg/ml DNA. The protein kinase reaction cocktails were incubated at 30°C for 60 minutes. The reaction was stopped with 50 µl of 2 % (v/v) H3PO4, plates were aspirated and washed two times with 200 µL 0.9 % (w/v) NaCl. Incorporation of 33Pi (counting of "cpm") was determined with a microplate scintillation counter (Microbeta, Wallac). All protein kinase assays were performed with a BeckmanCoulter Biomek 2000/SL robotic system. All protein kinases provided by RBE were expressed in Sf9 insect cells or in E.coli as recombinant GST-fusion proteins or His-tagged proteins, either as full-length or enzymatically active fragments. All kinases were produced from human cDNAs and purified by either GSH-affinity chromatography or immobilized metal. Affinity tags were removed from a number of kinases during purification. The purity of the protein kinases was examined by SDS-PAGE/Coomassie staining, the identity was checked by mass spectroscopy. Kinases from external vendors were expressed, purified and quality-controlled. Staurosporine was used as positive control.
(§3) Staurosporine was used as positive control.

[9] = target: T2, CDK9/CycK (Homo sapiens, UniProt P50750); assay: IC50 profiling on top 25 protein kinases; assay type: biochemical; conditions: titration from 0.1 nM to 10 000 nM
T2 construct: GST-fusion or His-tag (not given for this kinase); purchased Reaction Biology, Germany; host or cells: Sf9 insect cells or E.coli
Procedure: as §2, §3

[10] = target: T3, CDK9/CycT1 (Homo sapiens, UniProt P50750); assay: IC50 profiling on top 25 protein kinases; assay type: biochemical; conditions: titration from 0.1 nM to 10 000 nM
T3 construct: GST-fusion or His-tag (not given for this kinase); purchased Reaction Biology, Germany; host or cells: Sf9 insect cells or E.coli
Procedure: as §2, §3

[11] = target: T4, CDK12/CycK (Homo sapiens, UniProt Q9NYV4); assay: IC50 profiling on top 25 protein kinases; assay type: biochemical; conditions: titration from 0.1 nM to 10 000 nM
T4 construct: GST-fusion or His-tag (not given for this kinase); purchased Reaction Biology, Germany; host or cells: Sf9 insect cells or E.coli
Procedure: as §2, §3

[12] = test system: CycK; assay: CycK protein quantification by Western Blot; assay type: cell-based, human
Procedure: 1×10^6 JIMT-1 cells were plated in 3mL of DMEM/FBS 90:10 (v/v) in 6-well plates and incubated overnight. Cells were treated with the compound 2384 of the invention with or without the proteasome inhibitor MG-132 (MedChemExpress, Cat HY-13259) for 2h. Cells were harvested, and protein were extracted using complete RIPA buffer (RIPA buffer, 1 mM DTT, 1M NaF, 100 mM sodium orthovanadate, phosphatase inhibitor buffer and protease inhibitors) for 1 hour on ice. Lysate were centrifuged 15min at 12 000g at 4°C. and proteins were mixed with 4x Laemmli Sample Buffer (Bio-Rad), heated at 95 °C for 5 mins and separated by SDS PAGE (PROTEAN TGX Stain-Free Gels, Bio-Rad). Proteins were then transferred onto PVDF membrane (iBlot®2 PVDF stacks, Invitrogen) using the iBlot2 device (Invitrogen) and blocked with TBS buffer (Intercept® Blocking Buffer, LI-COR Biosciences). Primary antibodies were incubated overnight at 4°C and secondary antibodies (IRDye Infrared Dyes from LI-COR Biosciences) 1 hour at room temperature. Used primary antibody were: anti-CycK (cat#A301-939A, Bethyl Laboratories, dil. 1:1000) and anti-β-actin (cat#A5441, Sigma-Aldrich, dil. 1:5000). Membranes were scanned using a c500 Imaging System (Azure Biosystems) and densitometric quantification were performed using imaged software. Protein levels were normalized against β-actin.

T1 sequence (Q14004 whole entry, the tested form may be a part): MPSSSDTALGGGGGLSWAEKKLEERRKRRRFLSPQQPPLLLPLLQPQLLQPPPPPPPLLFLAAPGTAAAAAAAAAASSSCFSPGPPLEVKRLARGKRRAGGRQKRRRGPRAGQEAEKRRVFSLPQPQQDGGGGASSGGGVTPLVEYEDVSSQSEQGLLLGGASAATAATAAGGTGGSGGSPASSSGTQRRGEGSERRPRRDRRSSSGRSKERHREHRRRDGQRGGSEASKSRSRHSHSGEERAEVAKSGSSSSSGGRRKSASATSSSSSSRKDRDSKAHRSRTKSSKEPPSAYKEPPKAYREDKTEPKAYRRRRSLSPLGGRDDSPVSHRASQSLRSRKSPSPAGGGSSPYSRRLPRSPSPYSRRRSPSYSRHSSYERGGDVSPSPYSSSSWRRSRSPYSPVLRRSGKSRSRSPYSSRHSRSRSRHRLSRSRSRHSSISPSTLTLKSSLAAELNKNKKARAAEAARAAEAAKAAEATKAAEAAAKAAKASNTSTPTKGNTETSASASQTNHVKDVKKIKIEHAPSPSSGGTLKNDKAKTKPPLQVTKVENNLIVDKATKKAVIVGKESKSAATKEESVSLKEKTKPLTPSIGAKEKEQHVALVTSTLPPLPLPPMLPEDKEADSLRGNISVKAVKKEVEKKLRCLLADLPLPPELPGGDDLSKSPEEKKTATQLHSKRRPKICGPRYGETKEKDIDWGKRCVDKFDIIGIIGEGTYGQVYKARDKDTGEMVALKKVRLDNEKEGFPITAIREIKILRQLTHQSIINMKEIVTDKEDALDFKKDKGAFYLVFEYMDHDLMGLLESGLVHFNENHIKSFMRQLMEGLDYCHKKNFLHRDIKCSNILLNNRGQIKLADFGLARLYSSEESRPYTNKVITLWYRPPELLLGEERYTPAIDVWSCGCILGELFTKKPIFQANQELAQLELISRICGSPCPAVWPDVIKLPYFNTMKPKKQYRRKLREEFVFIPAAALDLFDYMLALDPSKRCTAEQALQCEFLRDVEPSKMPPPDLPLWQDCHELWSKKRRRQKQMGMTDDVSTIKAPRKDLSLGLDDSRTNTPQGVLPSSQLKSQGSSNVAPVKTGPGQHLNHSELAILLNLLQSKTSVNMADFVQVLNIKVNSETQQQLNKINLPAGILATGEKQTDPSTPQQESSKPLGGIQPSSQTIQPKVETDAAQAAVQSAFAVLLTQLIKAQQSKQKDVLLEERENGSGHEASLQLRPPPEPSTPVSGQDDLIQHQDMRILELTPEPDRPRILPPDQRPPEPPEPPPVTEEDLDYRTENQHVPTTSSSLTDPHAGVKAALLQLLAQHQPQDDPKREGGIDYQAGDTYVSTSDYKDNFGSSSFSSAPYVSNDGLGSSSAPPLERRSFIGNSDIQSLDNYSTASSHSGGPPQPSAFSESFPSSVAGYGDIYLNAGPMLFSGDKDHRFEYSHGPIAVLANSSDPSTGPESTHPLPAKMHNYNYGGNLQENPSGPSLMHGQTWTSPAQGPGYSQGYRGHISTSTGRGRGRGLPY
T1 sequence (O75909 whole entry partner, the tested form may be a part): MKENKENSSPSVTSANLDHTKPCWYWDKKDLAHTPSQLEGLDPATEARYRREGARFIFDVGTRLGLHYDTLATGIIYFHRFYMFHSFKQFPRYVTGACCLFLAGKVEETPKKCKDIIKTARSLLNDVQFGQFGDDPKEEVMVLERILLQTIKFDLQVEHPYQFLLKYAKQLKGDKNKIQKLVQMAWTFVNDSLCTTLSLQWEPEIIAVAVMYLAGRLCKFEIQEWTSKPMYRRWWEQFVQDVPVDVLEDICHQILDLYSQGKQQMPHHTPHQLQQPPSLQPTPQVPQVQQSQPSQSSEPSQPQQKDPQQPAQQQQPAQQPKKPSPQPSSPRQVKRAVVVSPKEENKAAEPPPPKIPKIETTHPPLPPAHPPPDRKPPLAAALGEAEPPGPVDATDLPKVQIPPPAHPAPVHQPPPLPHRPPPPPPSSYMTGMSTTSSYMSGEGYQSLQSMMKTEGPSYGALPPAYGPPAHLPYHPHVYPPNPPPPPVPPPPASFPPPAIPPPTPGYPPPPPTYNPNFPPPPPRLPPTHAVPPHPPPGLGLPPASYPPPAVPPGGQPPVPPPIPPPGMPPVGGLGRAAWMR
T3 sequence (P50750 whole entry, the tested form may be a part): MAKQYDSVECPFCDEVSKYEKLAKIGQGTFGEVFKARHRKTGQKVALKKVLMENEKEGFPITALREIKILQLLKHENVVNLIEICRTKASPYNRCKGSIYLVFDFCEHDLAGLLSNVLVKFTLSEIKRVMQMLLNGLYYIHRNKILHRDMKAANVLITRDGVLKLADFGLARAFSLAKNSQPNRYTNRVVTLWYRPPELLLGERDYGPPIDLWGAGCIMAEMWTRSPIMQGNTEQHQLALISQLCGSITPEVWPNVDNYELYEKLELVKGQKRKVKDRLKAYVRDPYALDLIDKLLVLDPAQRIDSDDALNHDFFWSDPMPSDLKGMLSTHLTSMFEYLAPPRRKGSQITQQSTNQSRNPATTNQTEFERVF
T3 sequence (O60563 whole entry partner, the tested form may be a part): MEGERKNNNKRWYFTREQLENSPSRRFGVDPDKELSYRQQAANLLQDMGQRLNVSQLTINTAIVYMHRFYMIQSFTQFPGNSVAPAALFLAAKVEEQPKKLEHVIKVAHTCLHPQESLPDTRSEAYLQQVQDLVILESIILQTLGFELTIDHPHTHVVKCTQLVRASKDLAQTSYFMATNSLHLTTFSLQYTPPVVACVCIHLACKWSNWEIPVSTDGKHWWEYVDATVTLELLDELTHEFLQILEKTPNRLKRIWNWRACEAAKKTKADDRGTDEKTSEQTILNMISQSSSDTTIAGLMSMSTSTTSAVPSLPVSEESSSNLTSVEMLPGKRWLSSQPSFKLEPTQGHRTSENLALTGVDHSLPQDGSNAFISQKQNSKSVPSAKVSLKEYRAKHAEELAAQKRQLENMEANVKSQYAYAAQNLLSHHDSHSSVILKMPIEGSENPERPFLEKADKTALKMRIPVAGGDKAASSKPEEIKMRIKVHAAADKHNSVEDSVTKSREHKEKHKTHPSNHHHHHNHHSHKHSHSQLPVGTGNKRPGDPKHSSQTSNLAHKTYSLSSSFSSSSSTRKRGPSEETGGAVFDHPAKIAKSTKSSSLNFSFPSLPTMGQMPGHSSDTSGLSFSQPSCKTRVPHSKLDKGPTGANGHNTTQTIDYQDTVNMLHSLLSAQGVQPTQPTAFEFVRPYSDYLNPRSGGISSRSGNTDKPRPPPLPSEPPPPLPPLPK
T2 sequence (P50750 whole entry, the tested form may be a part): as the sequence (P50750 whole entry, the tested form may be a part) above
T2 sequence (O75909 whole entry partner, the tested form may be a part): as the sequence (O75909 whole entry partner, the tested form may be a part) above
T4 sequence (Q9NYV4 whole entry, the tested form may be a part): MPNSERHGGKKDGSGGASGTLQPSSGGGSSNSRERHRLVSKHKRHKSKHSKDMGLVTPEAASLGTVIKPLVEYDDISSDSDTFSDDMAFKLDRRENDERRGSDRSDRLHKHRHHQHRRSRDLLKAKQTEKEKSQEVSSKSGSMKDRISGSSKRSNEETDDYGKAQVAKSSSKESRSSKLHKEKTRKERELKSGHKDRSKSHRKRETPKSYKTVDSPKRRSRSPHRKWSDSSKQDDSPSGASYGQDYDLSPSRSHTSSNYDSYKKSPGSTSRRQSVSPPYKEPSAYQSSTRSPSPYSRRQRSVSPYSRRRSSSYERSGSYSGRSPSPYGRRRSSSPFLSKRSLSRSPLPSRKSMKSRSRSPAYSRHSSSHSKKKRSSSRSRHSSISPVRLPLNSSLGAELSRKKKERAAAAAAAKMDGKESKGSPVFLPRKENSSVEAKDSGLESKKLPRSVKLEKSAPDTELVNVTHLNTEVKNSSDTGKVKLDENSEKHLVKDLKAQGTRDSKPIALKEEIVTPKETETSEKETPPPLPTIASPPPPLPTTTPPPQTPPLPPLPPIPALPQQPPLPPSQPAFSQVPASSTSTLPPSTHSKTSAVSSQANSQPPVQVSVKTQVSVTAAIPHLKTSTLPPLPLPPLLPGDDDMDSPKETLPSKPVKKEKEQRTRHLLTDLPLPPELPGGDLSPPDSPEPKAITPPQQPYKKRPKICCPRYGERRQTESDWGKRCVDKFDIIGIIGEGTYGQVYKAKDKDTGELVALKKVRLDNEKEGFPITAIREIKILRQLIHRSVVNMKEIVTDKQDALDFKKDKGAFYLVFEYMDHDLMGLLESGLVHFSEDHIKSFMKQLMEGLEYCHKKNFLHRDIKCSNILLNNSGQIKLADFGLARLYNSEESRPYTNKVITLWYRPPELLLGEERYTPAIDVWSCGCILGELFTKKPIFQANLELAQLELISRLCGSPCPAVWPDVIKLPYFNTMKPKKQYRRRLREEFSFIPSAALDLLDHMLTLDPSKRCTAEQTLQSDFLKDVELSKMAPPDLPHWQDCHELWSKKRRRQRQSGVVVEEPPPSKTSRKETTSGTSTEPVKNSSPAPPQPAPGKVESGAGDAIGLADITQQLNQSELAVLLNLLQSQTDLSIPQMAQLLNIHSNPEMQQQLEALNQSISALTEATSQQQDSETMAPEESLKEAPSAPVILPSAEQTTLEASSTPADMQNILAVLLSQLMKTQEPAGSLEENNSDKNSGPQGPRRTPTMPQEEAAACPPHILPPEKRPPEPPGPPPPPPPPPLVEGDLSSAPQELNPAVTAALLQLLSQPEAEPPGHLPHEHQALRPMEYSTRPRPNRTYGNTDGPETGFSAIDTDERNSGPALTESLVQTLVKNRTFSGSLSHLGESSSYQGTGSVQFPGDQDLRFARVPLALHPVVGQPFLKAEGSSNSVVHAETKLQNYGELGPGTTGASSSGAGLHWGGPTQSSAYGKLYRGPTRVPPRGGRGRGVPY
T4 sequence (O75909 whole entry partner, the tested form may be a part): as the sequence (O75909 whole entry partner, the tested form may be a part) above

Work on `N[C@H]1CC[C@H](Nc2nc(NCc3ccc(-c4ccccn4)cc3)n3ncc(Br)c3n2)CC1` [Compound 2384] yielded an IC50 [1] of 0.25 nM, an IC50 [2] of 0.38 nM and an IC50 [3] of 0.94 nM. The IC50 [4] was 0.73 nM, the IC50 [5] was 0.53 nM and the IC50 [6] was 0.76 nM. For the same compound, the “in vitro cytotoxicity potency” value [7] was “more potent compared to its isopropyl counterpart; also recorded: drastically improved low nanomolar potencies”, the IC50 [8] was < 25 nM and the IC50 [9] was < 25 nM. The IC50 [10] was < 25 nM, the IC50 [11] was < 25 nM and the CycK degradation ([12]; 10nM, 2h treatment of JIMT-1 cells) was “complete CycK degradation”. The CycK protein content ([12]; JIMT-1 cells, 1µM, 2h) was “decreased CycK protein content”, the “minimum effective dose for CycK degradation compared with CR8” value ([12]; JIMT-1 cells, 2h) was “approximately 10 times lower” and the CycK protein content ([12]; JIMT-1 cells, combination with the proteasome inhibitor MG-132, 2h) was “restored the content in cycK protein”.
